Data: US11993591B2, “Chromen-4-one derivatives for the treatment and prophylaxis of hepatitis B virus disease” (Hoffmann-La Roche Inc., priority 2018, dated 2024)

How the values were obtained:
[1] = test system: HBV (extracellular HBsAg) in primary human hepatocytes; test: Cryopreserved Primary Human Hepatocytes (PHH) HBV infection assay; format: cell-based; settings: Hepatitis B virus, Hepatocyte, 216 h; extracellular HBsAg (CLIA), HBV-infected cryopreserved PHH, 9 days post-compound treatment
Method: This assay is used to confirm the anti-HBV effect of the compounds in HBV PHH infection assay. Cryopreserved PHH (BioreclamationIVT, Lot YJM) was thawed at 37° C. and gently transferred into pre-warmed InVitroGRO HT medium (BioreclamationIVT, Cat. S03317).
The mixture was centrifuged at 70 relative centrifugal force (RCF) for 3 mins at RT, and the supernatant was discarded. Pre-warmed InVitroGRO CP medium (BioreclamationIVT, Cat #S03316) was added to the cell pellet to gently re-suspend cells. The cells were seeded at the density of 5.8×10^4 cells per well to collagen I coated 96-well plate (Gibco, Cat. A1142803) with the InVitroGRO CP medium. All plates were incubated at 37° C. with 5% CO2 and 85% humidity.
At 20 hours after plating, the medium was changed to PHH culture medium (Dulbecco's Modified Eagle Medium (DMEM)/F12 (1:1) (Gibco, Cat. 11320-033), 10% fetal bovine serum (Gibco Cat. 10099141), 100 U/mL penicillin, 100 μg/mL streptomycin (Gibco, Cat. 151401-122), […] (Invitrogen Cat. PHG0311L), 20 ng/mL dexamethasone (Sigma, Cat. D4902) and 250 ng/mL human recombinant insulin (Gibco, Cat. 12585-014)). And the cells were incubated at 37° C. with 5% CO2 and 85% humidity for 4 hours. The medium was then changed to pre-warmed PHH culture medium containing 4% polyethylene glycol (PEG) MW8000 (Sigma, Cat. P1458-50ML) and 1% DMSO (Sigma, Cat. D2650). 5.8×10^6 genomic equivalents of HBV were added into the medium.
At 24 hours post-infection, the cells were gently washed with PBS and refreshed with PHH culture medium supplemented with 1% DMSO, and 0.25 mg/mL Matrix gel (Corning, Cat. 356237) at 200 μL per well. All plates were immediately placed in at 37° C. CO2 incubator. 24 hours later, serial dilutions of compounds made with DMSO were further diluted with the same culture medium (PHH culture medium supplemented with 1% DMSO and 0.25 mg/mL Matrix gel as described above) before they were added to the cells to reach desired final compound concentrations and 1% DMSO concentration. The medium containing the compounds were refreshed every three days.
At 9 days post-compound treatment, extracellular HBsAg level were measured with Chemiluminescence Immuno Assay (CLIA) kit (Autobio, HBsAg Quantitative CLIA). Extracellular HBV DNA was extracted by MagNA Pure 96 system (Roche) and then determined by quantitative PCR with the following primers and probe: […]
HBsAg IC50 and HBV DNA IC50 values were derived from the dose-response curve using 4 parameter logistic curve fit method.

[2] = test system: HBV cccDNA (HBeAg level) in HepDES19 cells; test: Engineered HepDES19 primary screen assay (HBeAg as surrogate marker for cccDNA); format: cell-based; settings: Hepatitis B virus, HepDES19, 120 h
From the text: The assay was employed to screen for novel cccDNA inhibitors. HepDES19 is a cccDNA-producing cell line. In this cell line, HBeAg in the cell culture supernatant as surrogate marker, as HBeAg production depends on cccDNA level and activity. HepDES19 is an engineered cell line which contains a 1.1 unit length HBV genome, and pgRNA transcription from the transgene is controlled by Tetracycline (Tet). In the absence of Tet, pgRNA transcription will be induced, but HBV e antigen (HBeAg) could not be produced from this pgRNA due to very short leader sequence before the HBeAg start codon and the start codon is disrupted. Only after cccDNA is formed, the missing leader sequence and start codon mutation would be restored from the 3′-terminal redundancy of pgRNA, and then HBeAg could be synthesized. Therefore, HBeAg could be used as a surrogate marker for cccDNA (Zhou, T. et al., Antiviral Res. (2006), 72(2), 116-124; Guo, H. et al., J. Virol. (2007), 81(22), 12472-12484).
HepDES19 cells were seeded at 2×10^6 cells per T150 flask and cultured with the culture medium (Dulbecco's Modified Eagle Medium: Nutrient Mixture F-12 [DMEM-F12, Gibco Cat. 11320-82], 10% Fetal Bovine Serum [FBS, Clontech Cat. 631101], 0.1 mM Non-Essential Amino Acids Solution [NEAA, Gibco Cat. 11140-050], 50 μg/mL Penicillin-Streptomycin [PS, Invitrogen Cat. 15140-163], 500 μg/mL Geneticin [G418, Invitrogen Cat. 10131-027]) containing 3 μg/mL Tet (Sigma, Cat. 87128) for 5 days. Cells were then seeded at 4×10^6 cells per T150 in the same culture medium as described above in the absence of Tet for 8 days. Cells were then harvested and frozen at density of 2×10^6 cells per mL. For compound testing, the frozen cells were thawed and seeded into 96-well plates at a density of 6×10^4 cells per well. At 24 hours after seeding, half log serial dilutions of compounds made with Dimethyl sulfoxide (DMSO, Sigma, Cat. D2650) were further diluted with the same culture medium as described above before they were added to the cells to reach desired final compound concentrations and 1% DMSO concentration. Plates were then incubated at 37° C. for another 5 days before measurement of HBeAg level and cell viability. Intracellular HBeAg level were measured with enzyme-linked immunosorbent assay (ELISA) kit (Shanghai Kehua Diagnostic Medical Products Co., Ltd). Cell viability was assessed using Cell Counting Kit-8 (Donjindo, Cat. CK04-20). IC50 values were derived from the dose-response curve using 4 parameter logistic curve fit method.
The compounds of the present invention were tested for their capacity to inhibit extracellular HBeAg level as described herein.

| Structure (SMILES) | IC50 [1] | IC50 [2] |
| --- | --- | --- |
| O=C(Nc1ccc(OCCOC2CC(C(=O)O)C2)cc1F)c1cc(=O)c2cccc(Cl)c2o1 (stereo not drawn) [Example 1, 3-(2-(4-(8-chloro-4-oxo-chromene-2-carboxamido)-3-fluorophenoxy)ethoxy)cyclobutanecarboxylic Acid] | 2.86 µM | – |
| Cc1cc(OCCOC2CC(C(=O)O)C2)ccc1NC(=O)c1cc(=O)c2cccc(Cl)c2o1 (stereo not drawn) [Example 2, 3-(2-(4-(8-chloro-4-oxo-chromene-2-carboxamido)-3-methylphenoxy)ethoxy)cyclobutanecarboxylic Acid] | 4.36 µM | – |
| Cc1cc(Cl)ccc1NC(=O)c1oc2ccc(Cl)cc2c(=O)c1C [Example 3, 6-chloro-N-(4-chloro-2-methylphenyl)-3-methyl-4-oxo-chromene-2-carboxamide] | 6.47 µM | 0.64 µM |
| O=C(Nc1ccc(OCCOC2CC(C(=O)O)C2)cc1C(F)(F)F)c1cc(=O)c2cccc(Cl)c2o1 (stereo not drawn) [Example 5, 3-(2-(4-(8-chloro-4-oxo-chromene-2-carboxamido)-3-(trifluoromethyl)phenoxy)ethoxy)cyclobutanecarboxylic Acid] | 7.42 µM | – |
| O=C(Nc1nnc(C(F)(F)F)s1)c1cc(=O)c2cccc(Cl)c2o1 [Example 6, 8-chloro-4-oxo-N-(5-(trifluoromethyl)-1,3,4-thiadiazol-2-yl)-chromene-2-carboxamide] | 9.53 µM | – |
| O=C(NCc1ccc(Cl)cc1Cl)c1cc(=O)c2cccc(Cl)c2o1 [Example 9, 8-chloro-N-(2,4-dichlorobenzyl)-4-oxo-chromene-2-carboxamide] | 14.1 µM | – |
| Cc1cc(Br)cnc1NC(=O)c1cc(=O)c2cccc(Cl)c2o1 [Example 10, N-(5-bromo-3-methylpyridin-2-yl)-8-chloro-4-oxo-chromene-2-carboxamide] | 24.3 µM | – |
| O=C(Nc1ccc(Cl)cc1C(F)(F)F)c1cc(=O)c2cccc(Cl)c2o1 [Example 12, 8-chloro-N-(4-chloro-2-(trifluoromethyl)phenyl)-4-oxo-chromene-2-carboxamide] | 34.2 µM | – |
| Cc1cc(Cl)ccc1NC(=O)c1cc(=O)c2cc(Cl)cc(Cl)c2o1 [Example 13, 6,8-dichloro-N-(4-chloro-2-methylphenyl)-4-oxo-chromene-2-carboxamide] | 36.3 µM | – |
| COc1ccc2c(c1)CCN(C(=O)c1cc(=O)c3cccc(Cl)c3o1)C2 [Example 14, 8-Chloro-2-(6-methoxy-3,4-dihydro-1H-isoquinoline-2-carbonyl)chromen-4-one] | 36.3 µM | – |
| Cc1ccccc1NC(=O)c1cc(=O)c2cccc(Cl)c2o1 [Example 15, 8-chloro-4-oxo-N-(o-tolyl)-chromene-2-carboxamide] | 37.6 µM | – |
| O=C(c1cc(=O)c2cccc(Cl)c2o1)N1CCc2ccc(Cl)cc2C1 [Example 16, 8-Chloro-2-(7-chloro-3,4-dihydro-1H-isoquinoline-2-carbonyl)chromen-4-one] | 40.3 µM | – |
| Cc1cc(C(=O)O)ccc1NC(=O)c1cc(=O)c2cccc(Cl)c2o1 [Example 18, 4-(8-chloro-4-oxo-chromene-2-carboxamido)-3-methylbenzoic Acid] | 43 µM | – |
| Cc1cc(OCCOCC(=O)O)ccc1NC(=O)c1cc(=O)c2cccc(Cl)c2o1 [Example 19, 2-(2-(4-(8-chloro-4-oxo-chromene-2-carboxamido)-3-methylphenoxy)ethoxy)acetic Acid] | 31.6 µM | – |
| O=C(O)C1CC(OCCOc2ccc3c(c2)CCN(c2cc(=O)c4cccc(Cl)c4o2)C3)C1 (stereo not drawn) [Example 36, 3-[2-[[2-(8-chloro-4-oxo-chromen-2-yl)-3,4-dihydro-1H-isoquinolin-6-yl]oxy]ethoxy]cyclobutanecarboxylic Acid] | 0.61 µM | – |
| O=C(O)C1CC(OCCOc2ccc3c(c2)CN(c2cc(=O)c4cccc(Cl)c4o2)C3)C1 (stereo not drawn) [Example 37, 3-[2-[2-(8-chloro-4-oxo-chromen-2-yl)isoindolin-5-yl]oxyethoxy]cyclobutanecarboxylic Acid] | 1.06 µM | – |
| O=C(O)c1cccc(CN2CCN(c3cc(=O)c4cccc(Cl)c4o3)CC2)c1 [Example 38, 3-((4-(8-chloro-4-oxo-chromen-2-yl)piperazin-1-yl)methyl)benzoic Acid] | 38.5 µM | – |
| O=C(O)COCCOC1CC2CCC(C1)N2c1cc(=O)c2cccc(Cl)c2o1 (stereo not drawn) [Example 39, 2-(2-((8-(8-chloro-4-oxo-chromen-2-yl)-8-azabicyclo[3.2.1]octan-3-yl)oxy)ethoxy)acetic Acid] | 38.5 µM | – |
| CC1c2ccc(OCCOC3CC(C(=O)O)C3)cc2CCN1c1cc(=O)c2cccc(Cl)c2o1 (stereo not drawn) [Example 40, 3-[2-[[2-(8-chloro-4-oxo-chromen-2-yl)-1-methyl-3,4-dihydro-1H-isoquinolin-6-yl]oxy]ethoxy]cyclobutanecarboxylic Acid] | 34.6 µM | – |
| O=c1cc(-n2ccc(OCc3ccccc3)cc2=O)oc2c(Cl)cccc12 [Example 59, 4-(benzyloxy)-1-(8-chloro-4-oxo-chromen-2-yl)pyridin-2(1H)-one] | – | 24.4 µM |
| O=C(O)C1CC(OCCOc2ccc(CNc3cc(=O)c4cccc(Cl)c4o3)cc2)C1 (stereo not drawn) [Example 60, 3-(2-(4-(((8-chloro-4-oxo-chromen-2-yl)amino)methyl)phenoxy)ethoxy)cyclobutanecarboxylic Acid] | – | 30.8 µM |
| O=c1c(I)c(N2CCC(O)CC2)oc2c(Cl)cccc12 [Example 61, 8-chloro-2-(4-hydroxypiperidin-1-yl)-3-iodo-chromen-4-one] | – | 30.9 µM |
| CC(C)(C)OC(=O)N1CC2(C1)CN(c1cc(=O)c3cccc(Cl)c3o1)C2 [Example 62, Tert-butyl 6-(8-chloro-4-oxo-chromen-2-yl)-2,6-diazaspiro[3.3]heptane-2-carboxylate] | – | 33.2 µM |
| COC(=O)c1cccc(C(=O)N2CC3(C2)CN(c2cc(=O)c4cccc(Cl)c4o2)C3)c1 [Example 63, Methyl 3-[6-(8-chloro-4-oxo-chromen-2-yl)-2,6-diazaspiro[3.3]heptane-2-carbonyl]benzoate] | – | 31.7 µM |
| O=C(O)C1CC(OCCOc2ccc3c(c2)CN(c2cc(=O)c4cccc(Cl)c4o2)C3=O)C1 (stereo not drawn) [Example 64, 3-(2-((2-(8-chloro-4-oxo-chromen-2-yl)-1-oxoisoindolin-5-yl)oxy)ethoxy)cyclobutanecarboxylic Acid] | – | 36.6 µM |
| COc1ccc2c(c1)C(=O)N(c1cc(=O)c3cccc(Cl)c3o1)CC2 [Example 65, 2-(8-chloro-4-oxo-chromen-2-yl)-7-methoxy-3,4-dihydroisoquinolin-1-one] | – | 37.6 µM |
